# Source: paper PMC6136390, “Coptisine-induced inhibition of Helicobacter pylori: elucidation of specific mechanisms by probing urease active site and its maturation process” (Journal of Enzyme Inhibition and Medicinal Chemistry, 2018)
# Read-outs that look alike come from different tables or passages of the source.
# Experiments:
# H. pylori cells (SS1) = experiment: pH shock experiment in vivo (urea-dependent survival of H. pylori); type: cell-based, Helicobacter pylori; details: for surviving bacteria, pH =1: 100 mM HCl pH 1, 5 mM urea; for surviving bacteria, pH =1 / surviving bacteria, pH =7.2: 30 min; for surviving bacteria, pH =7.2: PBS pH 7.2, 5 mM urea; for inhibition at 50 µM / inhibition at 100 µM / inhibition at 200 µM: Helicobacter pylori, 0.5 h
# Description: H. pylori cells (SS1) were harvested, and the concentration was adjusted to Mc = 4 with saline. Then, bacterial samples were mixed with AHA (positive control, 5 mM) or one of the five alkaloids from Rhizoma Coptidis (coptisine, berberine, jatrorrhizine, epiberberine, and palmatine) in 100 mM HCl (pH = 1) or PBS (pH = 7.2) at 37 °C with or without 5 mM urea. After 30 min of incubation, bacteria were collected by centrifugation at 2000g for 10 min and resuspended in the same volume of PBS. A dilution series (1:1–1:10000) was made from the samples, and the dilutions were plated on solid agar for 5 days to form single colony. Samples from urea-free wells were used as controls. Results are expressed as CFU/mL; the experiment was repeated in triplicate. Inhibition rate was calculated using the following equation: Inhibition rate = (Urea group bacterial mean − X group bacterial mean)/Urea group bacterial mean ×100%, where X represents each experimental group.
# jack bean urease (JBU) [1] = target: T1, jack bean urease (JBU) (Canavalia ensiformis, UniProt P07374); experiment: Urease inhibition assay in vitro (modified Berthelot method); type: biochemical
# T1 construct: purchased Sigma Aldrich (Steineheim, Germany) type III (catalogue number not given)
# Description: This assay was performed using the modified Berthelot method (phenol-hypochlorite) in 96 well plates. At the beginning of each reaction, different concentrations of urease solution and 150 mM urea as a substrate were mixed in 20 mM HEPES buffer (pH 7.5) at 37 °C. After a 20-min reaction, urease activity was tested by measuring the concentration of ammonia produced by the reaction at 595 nm using the microplate reader (Thermo Fisher Multiskan FC, Instruments, Inc., USA) at ambient temperature. […] One unit (U) of urease activity was defined as the amount of urease required to catalyse 1 μmol urea per min. These experiments were repeated in triplicate.
# Coptisine’s ability to inhibit urease activity was determined by measuring amounts of ammonia produced using the modified Berthelot method described above. The assay mixture, which contained 200 μL of enzyme and 200 μL of coptisine solution (0.16–2.51 mM) in 200 μL of 20 mM HEPES buffer (pH 7.5), was incubated for 20 min at 37 °C in 96-well plates. The reaction was then initiated by adding urea solution (150 mM) to determine residual urease activity. AHA was used as a standard urease inhibitor. […] Residual activity (RA %) for each assay was calculated using the following equation: RA % = (activity with inhibitors/activity without inhibitors) × 100%. […]
# H. pylori urease (HPU) = target: T2, H. pylori urease (HPU) (Helicobacter pylori, UniProt P69996); experiment: Determination of urease inhibition type (Lineweaver-Burk plots); type: biochemical
# T2 construct: Crude HPU was obtained according to the method described by Matsubara et al; endogenous in cells; host or cells: cultured Helicobacter pylori (strain not specified)
# Description: (§1) Using the methods described above, the type of enzyme inhibition induced by coptisine was determined by examining changes in the Michaelis constant (KM) and maximum velocity (vmax) values from Lineweaver–Burk plots of 1/v versus 1/urea. The inhibition constant was determined using secondary plots of the apparent KM/vmax or 1/vmax versus the concentration of coptisine. The assays were performed in triplicate.
# jack bean urease (JBU) [2] = target: T1, jack bean urease (JBU); experiment: as above; type: biochemical
# Description: as §1
# [3] = pH 1, read-out: Inhibition rate, pH =1
# [4] = pH 7.2, read-out: Inhibition rate, pH =7.2
# [5] = Lineweaver-Burk plots, 1.00, 2.00 or 4.00 mM Cop
# T1 sequence (P07374 whole entry, looked up): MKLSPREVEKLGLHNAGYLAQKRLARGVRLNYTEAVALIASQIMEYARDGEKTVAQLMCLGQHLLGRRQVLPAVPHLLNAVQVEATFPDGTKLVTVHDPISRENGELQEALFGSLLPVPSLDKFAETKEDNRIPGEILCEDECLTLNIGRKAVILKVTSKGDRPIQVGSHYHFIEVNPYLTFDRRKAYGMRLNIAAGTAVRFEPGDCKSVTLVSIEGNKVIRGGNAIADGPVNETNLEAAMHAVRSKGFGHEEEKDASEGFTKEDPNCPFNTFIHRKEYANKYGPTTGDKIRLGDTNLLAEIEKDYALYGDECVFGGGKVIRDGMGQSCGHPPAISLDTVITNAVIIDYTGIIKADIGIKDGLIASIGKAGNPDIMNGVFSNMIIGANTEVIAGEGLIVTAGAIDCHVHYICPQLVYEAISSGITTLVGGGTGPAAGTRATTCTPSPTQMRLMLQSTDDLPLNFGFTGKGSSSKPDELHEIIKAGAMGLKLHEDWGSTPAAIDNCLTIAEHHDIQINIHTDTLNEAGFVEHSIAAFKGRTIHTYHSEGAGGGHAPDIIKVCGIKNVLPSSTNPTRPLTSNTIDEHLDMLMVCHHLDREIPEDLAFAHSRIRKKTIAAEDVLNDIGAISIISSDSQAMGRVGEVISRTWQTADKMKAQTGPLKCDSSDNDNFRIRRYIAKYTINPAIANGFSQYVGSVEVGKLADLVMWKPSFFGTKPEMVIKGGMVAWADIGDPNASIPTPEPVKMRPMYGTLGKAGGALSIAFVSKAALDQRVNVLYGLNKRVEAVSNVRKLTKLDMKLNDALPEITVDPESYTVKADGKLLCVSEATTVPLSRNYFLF
# T2 sequence (P69996 whole entry): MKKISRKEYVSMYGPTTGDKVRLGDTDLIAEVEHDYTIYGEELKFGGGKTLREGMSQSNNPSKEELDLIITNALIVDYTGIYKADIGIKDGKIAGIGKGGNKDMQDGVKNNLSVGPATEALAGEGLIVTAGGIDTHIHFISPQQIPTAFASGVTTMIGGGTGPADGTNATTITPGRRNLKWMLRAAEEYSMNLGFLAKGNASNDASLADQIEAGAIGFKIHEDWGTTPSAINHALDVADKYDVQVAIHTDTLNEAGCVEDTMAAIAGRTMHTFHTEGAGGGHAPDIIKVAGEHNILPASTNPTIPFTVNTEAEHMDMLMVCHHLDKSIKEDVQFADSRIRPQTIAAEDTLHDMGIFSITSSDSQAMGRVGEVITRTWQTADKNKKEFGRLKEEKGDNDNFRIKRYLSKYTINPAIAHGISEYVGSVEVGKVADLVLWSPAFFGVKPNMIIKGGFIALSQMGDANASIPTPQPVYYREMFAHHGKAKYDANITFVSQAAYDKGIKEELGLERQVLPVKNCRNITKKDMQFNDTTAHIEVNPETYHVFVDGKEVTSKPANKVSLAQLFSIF
# T2 sequence (P14916 whole entry, further chain): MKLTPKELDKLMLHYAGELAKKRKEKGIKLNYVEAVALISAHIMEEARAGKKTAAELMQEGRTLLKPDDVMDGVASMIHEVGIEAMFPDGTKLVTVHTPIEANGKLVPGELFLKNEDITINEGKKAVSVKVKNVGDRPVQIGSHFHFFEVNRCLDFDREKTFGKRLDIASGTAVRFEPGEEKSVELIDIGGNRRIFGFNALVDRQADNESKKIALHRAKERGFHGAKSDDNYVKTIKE
compound,measurement,setting,value
c1c2c(cc3c1OCO3)-c1cc3ccc4c(c3c[n+]1CC2)OCO4 [Coptisine],"surviving bacteria, pH =1",H. pylori cells (SS1); 50 μM compound,129 ± 31 CFU/mL
same,"surviving bacteria, pH =7.2",H. pylori cells (SS1); 50 μM compound,1.0 ± 0.2 ×10^4 CFU/mL
same,"surviving bacteria, pH =1",H. pylori cells (SS1); 100 μM compound,25 ± 6 CFU/mL
same,"surviving bacteria, pH =7.2",H. pylori cells (SS1); 100 μM compound,1.3 ± 0.3 ×10^4 CFU/mL
same,"surviving bacteria, pH =1",H. pylori cells (SS1); 200 μM compound,7 ± 3 CFU/mL
same,"surviving bacteria, pH =7.2",H. pylori cells (SS1); 200 μM compound,1.2 ± 0.3 ×10^4 CFU/mL
same,inhibition at 50 µM,H. pylori cells (SS1); [3],72.7%
same,inhibition at 100 µM,H. pylori cells (SS1); [3],94.7%
same,inhibition at 200 µM,H. pylori cells (SS1); [3],98.5%
same,inhibition at 50 µM,H. pylori cells (SS1); [4],0%
same,inhibition at 100 µM,H. pylori cells (SS1); [4],0%
same,inhibition at 200 µM,H. pylori cells (SS1); [4],0%
same,IC50,jack bean urease (JBU) [1],260 ± 20 µM
same,Ki,H. pylori urease (HPU),50 µM
same,"inhibition type, HPU",H. pylori urease (HPU); [5],mixed-type inhibitor
same,"Kis (binding to the enzyme substrate complex), HPU",H. pylori urease (HPU); from vertical intercept versus inhibitor concentration,1.48 mM
same,Ki,jack bean urease (JBU) [2],170 µM
same,"inhibition type, JBU",jack bean urease (JBU) [2]; [5],non-competitively inhibits
same,"Kis, JBU",jack bean urease (JBU) [2]; from intercept versus Cop concentration,0.25 mM
